Test results taken from patent US9260417B2, “Therapeutic methods and compositions involving allosteric kinase inhibition” (AMITECH THERAPEUTIC SOLUTIONS, INC., priority 2010, dated 2016).

Experiments:
[1] = test system: HCT116; assay: Tumor cell viability; assay type: cell-based, human; settings: Homo sapiens, HCT-116; Colon HCT116, K-Ras
Procedure: (§1) For XTT assays, cells were grown in 96-well plates overnight and all assays were conducted in growth medium will full serum and additives. Compounds were serially diluted in DMSO and then further diluted into the medium to give the appropriate concentration while minimizing precipitation associated with serial diluting in medium alone Inhibitors were added for 72 h and cell viability was quantified at 450 nm after the addition of 1 mg/ml XTT solution (Sigma-Aldrich) in phenol-red free DMEM medium containing […] (Sigma-Aldrich). Dose-response curves were plotted using GraphPad Prism software and EC50s were calculated using this program.

[2] = molecular target: B-RAF/C-RAF heterodimerization (Homo sapiens (Human), UniProt P15056); assay: B-RAF/C-RAF heterodimerization in HUVECs (immunoprecipitation/Western); assay type: cell-based; settings: ECs stimulated with bFGF or VEGF
[3] = test system: MCF7; assay: Tumor cell viability; assay type: cell-based; settings: Homo sapiens; Breast MCF7, PI3K
Procedure: as §1

[4] = test system: HT29; assay: Tumor cell viability; assay type: cell-based; settings: Homo sapiens, HT-29; Colon HT29, B-RAF V600E
Procedure: as §1

[5] = test system: R40P; assay: Tumor cell viability; assay type: cell-based; settings: Pancreatic (mouse spontaneous model) R40P, K-Ras
Procedure: as §1

[6] = test system: HUVECs co-cultured with hTERT-human hepatic stellate cells; assay: Stellate cell/endothelial cell co-culture tube formation assay; assay type: cell-based; settings: […] 6, […] 3, 1.0 μM imatinib, 0.5 μM GW 5074
Procedure: One representative panel from 3 independent experiments is shown. […] Scale bar=200 μm.
The stellate cells were washed in PBS and mixed with early passage HUVECs (p<5) at a ratio of 1:4 and mixed into a 3.75 mg/ml Type 1 Rat tail collagen matrix (BD Biosciences) in M-199 media. 30 μl of this mixture was seeded onto each well of a half-area 96 well plate (Corning). The collagen was allowed to polymerize for 30 min at 37° C. and […] of complete EBM-2 media was added to each well. Various inhibitors were serially diluted in DMSO and subsequently added to duplicate wells 6 h post cell seeding. […] The endothelial tubes and the stellate cells were imaged at 48 h with a 10× objective on a confocal microscope. Images were collected across five fields per well.
Stellate cell/endothelial cell tube formation assay and mouse matrigel model. This assay was performed as described in the SI Methods. The stellate cells were a gift from Dr. David Brenner and previously described (Schnabl, et al. (2002) Laboratory investigation; a journal of technical methods and pathology 82:323-333). […] The mouse matrigel model was performed as previously described (Eliceiri, et al. (1999) Molecular cell 4:915-924 5) and further details of immunohistochemistry and animal dosing can be found herein.
To validate the findings of Example 10, a co-culture angiogenesis assay was utilized to evaluate similar combinations of PDGFR and RAF inhibitors. In the assay, HUVECs are mixed with hepatic stellate cells (a pericyte found in the perisinusoidal space of the liver) in a 3D-collagen gel. The co-culture produced endothelial tubes with pericyte contacts (from the stellate cells) that can be imaged and quantified as shown in FIGS. 4B and C.

[7] = test system: Tg(fli1:EGFP) zebrafish embryos; assay: Zebrafish angiogenesis model; settings: for intersegmental vessel formation: treated 16-48 hpf, 5 μM imatinib, 1 μM GW 5074, alone or combined
Procedure: Embryos were treated with 1 μM 6 or SU5416, or 10 μM 3 from 20 hours post fertilization (hpf) until 48 hpf. Representative 3D reconstructions of the blood vasculature are shown for both the head and tail regions of the embryo. Designations for the major vessels in the head and tail of the zebrafish embryo at 48 hpf are available in FIG. 8A. (FIG. 3B) Disruption of lumen formation in the zebrafish during late vessel maturation. Zebrafish treated with either 1 μM 6 or 10 μM 3 from 20-48 hpf were imaged at 35 and 48 hpf. […] Shown is 3D overlap reconstruction of the GFP expressing intersegmental vessels with TUNEL-positive nuclei at 48 hpf (shown in red). Representative phase contrast views as well as quantification of intersegmental vessel volumes from FIG. 3A and FIG. 3B can be found in FIG. 8B-D, respectively. (FIG. 3C) Time course of drug addition to zebrafish. […] At 30 hpf the zebrafish embryos established early vessels with evident lumens. […] All scale bars=100 μm.
Z-stacks from laser scanning confocal microscopy are shown depicting formation of the intersegmental vessels at 48 hpf. n=6 embryos/treatment. (FIG. 4B) HUVECs were co-cultured with hTERT-human hepatic stellate cells in a 3-D collagen matrix in the presence of complete EBM-2 medium to monitor pericyte-associated endothelial tube formation. […] The endothelial tubes were stained at 24 h by adding 2 μl FITC labeled Ulex europaeus lectin (Vector labs) per well. Images were acquired 48 h post seeding of the cells. One representative panel from 3 independent experiments is shown. Green—FITC lectin labeled endothelial cells, Red—DiIC(3) labeled stellate cells. […] Scale bar=200 μm. (FIG. 4C) Tube lengths were measured using Metamorph software for each tube for all 10 fields that were acquired. The % pericyte-covered tube length was calculated from the ratio of tube length sums for the tubes with and without pericyte contact. Error bars are reported as ±SEM of two wells per group. *indicates p<0.05 compared to DMSO group.
Zebrafish studies. Transgenic Tg(fli1:EGFP) zebrafish embryos were purchased from www.zfin.org and reported elsewhere (Lawson, et al. (2002) Dev Biol 248:307-318) and maintained according to (“Zebrafish—A Practical Approach”, Oxford University Press, 2002). Compounds in DMSO stock solutions were diluted directly into the water and vessels were imaged for GFP expression using a Nikon c1-si confocal microscope. Apoptosis was measured by TUNEL staining using the Apoptag in situ Red Fluorescence Kit (Chemicon) with a protocol described previously (Stanton, et al. (2006) The Journal of biological chemistry 281:28782-28793).

[8] = test system: A549 cells; assay: Cell proliferation assay (BrdU ELISA) in A549 cells; assay type: cell-based; settings: A549, low serum DMEM (0.5% FBS), 72 h
Procedure: A549 cells, which endogenously express oncogenic K-RAS, were plated at 2500 cells/well of a 96-well plate in low serum DMEM (0.5% fetal bovine serum) overnight. The next morning, compounds were serially diluted in DMSO and resuspended in fresh DMEM+0.5% medium, which was added to the cells for 72 h. At this time point the cells were fixed and proliferation was quantified using an ELISA for bromodeoxyuriding incorporation (BrdU ELISA, Millipore, Inc.). BrdU incorporation occurs during S phase and is the classical method for determining cell proliferation rates. In FIG. 14B-C, BrdU incorporation is expressed as a percentage of the BrdU incorporation occurring in cells treated with 0.1% DMSO as control. A dotted line represents the growth rate of cells treated with DMSO alone. […] (FIG. 13C)

[9] = test system: XPA-1 cells; assay: Cell cycle analysis of XPA-1 cells (flow cytometry); assay type: cell-based; settings: 5 μM, 20 h
Procedure: For cell cycle analysis, cells were grown in complete DMEM+10% FBS in the presence of each inhibitor and harvested after 20 h of inhibitor treatment. Cell cycle analysis was performed by flow cytometry following propidium iodide staining. The cells were harvested, fixed with ice cold methanol, treated for 45 min with 10 μg/ml of RNAse and resuspended in PBS containing 10 μg/ml of PI, and analysed by flow cytometry. […] For corresponding confocal microscopy images, cells attached to coverslips were fixed with cold methanol and permeabilized in PBS containing 0.1% triton X-100 for two minutes and blocked for 60 minutes, at room temperature with 2% BSA in PBS. Cells were stained with the DNA binding dye TOPRO-3 (Invitrogen) to label the DNA and laminB (Santa Cruz) to label the nuclear envelope. The anti-Lamin B antibody was used at a 1:100 dilution for two hours at room temperature. After washing several times with PBS, cells were stained for two hours at room temperature, with secondary antibody diluted 1:300 and co-incubated with TOPRO-3 (1:500) (Invitrogen). Samples were mounted in Vectashield hard-set mounting media (Vector Laboratories) and imaged on a Nikon Eclipse Cl confocal microscope with a 1.4 NA 60× oil-immersion lens, using minimum pinhole (30 μm). Images were captured and processed using EZ-C1 3.50 imaging software (Nikon, Inc). Scale bars, 10 μm.

B-RAF/C-RAF heterodimerization, sequence (P15056 whole entry, one chain of several): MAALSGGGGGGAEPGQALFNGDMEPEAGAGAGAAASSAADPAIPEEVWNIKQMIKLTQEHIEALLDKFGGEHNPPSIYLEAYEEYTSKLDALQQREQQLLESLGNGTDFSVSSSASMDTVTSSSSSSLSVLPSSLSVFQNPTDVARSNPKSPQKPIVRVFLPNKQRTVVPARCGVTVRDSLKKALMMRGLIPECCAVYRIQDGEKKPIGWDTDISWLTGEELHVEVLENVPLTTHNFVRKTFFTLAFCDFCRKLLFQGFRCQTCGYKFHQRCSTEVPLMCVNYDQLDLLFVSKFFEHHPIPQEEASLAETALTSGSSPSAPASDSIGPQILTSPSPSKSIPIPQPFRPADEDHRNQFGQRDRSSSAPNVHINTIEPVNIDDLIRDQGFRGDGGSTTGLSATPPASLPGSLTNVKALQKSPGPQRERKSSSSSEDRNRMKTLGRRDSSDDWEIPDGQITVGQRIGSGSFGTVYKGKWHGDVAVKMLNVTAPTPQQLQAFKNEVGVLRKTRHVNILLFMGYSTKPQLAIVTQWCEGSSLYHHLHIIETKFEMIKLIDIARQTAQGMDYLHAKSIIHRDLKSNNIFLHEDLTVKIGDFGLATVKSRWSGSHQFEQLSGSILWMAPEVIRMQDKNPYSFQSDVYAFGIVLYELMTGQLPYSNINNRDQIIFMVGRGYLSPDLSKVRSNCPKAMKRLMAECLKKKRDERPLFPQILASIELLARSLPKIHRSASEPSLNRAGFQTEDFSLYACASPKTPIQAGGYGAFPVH

With `N#CC(=C(/N)Sc1ccccc1N)/C(C#N)=C(\N)Sc1ccccc1N` [Compound U0126] the EC50 [1] was over 20 µM, the B-RAF/C-RAF heterodimer formation [2] was “greatly increased” and the EC50 [3] was over 20 µM. It also gave an EC50 [4] of 4.41 µM and an EC50 [5] of 10.9 µM.

`O=C1Nc2ccc(I)cc2/C1=C/c1cc(Br)c(O)c(Br)c1` [GW 5074, reference compound] was tested, and the “endothelial tube formation and % pericyte-covered tube length” value [6] was “did not affect pericyte coverage or tube length” and the intersegmental vessel formation [7] was “do not have an effect on intersegmental vessel formation”.

In the case of `Oc1cc(-c2nc(-c3ccccc3)[nH]c2-c2ccncc2)ccc1Cl` [L-779,450], the “cell proliferation (BrdU incorporation) versus DMSO control” value [8] is reported as “induce hyperproliferation”.

With `O=C(NOC[C@H](O)CO)c1ccc(F)c(F)c1Nc1ccc(I)cc1F` [PD0325901, reference compound] the “cell cycle / mitotic progression” value [9] was “had no effect on mitotic progression”.

With `CCCS(=O)(=O)Nc1ccc(F)c(C(=O)c2c[nH]c3ncc(Cl)cc23)c1F` [PLX 4720] the “cell proliferation (BrdU incorporation) versus DMSO control” value [8] was “induce hyperproliferation”.

`Cc1cc(C)c(C=C2C(=O)Nc3ccccc32)[nH]1` [SU5416, 3-[(2,4-dimethylpyrrol-5-yl)methylene]-2-indolinone] was tested, and the “blood vessel formation in zebrafish embryos” value ([7]; treated 20-48 hpf, 1 μM 6 or SU5416, up to 10 μM 3) was “completely disrupting endothelial cell migration and neovascularization in the tail”.

For `Cc1ccc(NC(=O)c2ccc(CN3CCN(C)CC3)cc2)cc1Nc1nccc(-c2cccnc2)n1` [imatinib, reference compound], the “endothelial tube formation and % pericyte-covered tube length” value [6] was “did not affect endothelial tube formation” and the intersegmental vessel formation [7] was “do not have an effect on intersegmental vessel formation”.
